Data from patent US10792328B2, “Nanocomplexes for delivery of saporin” (Trustees of Tufts College, priority 2013, dated 2020).

Experiments:
MDA-MB-231 cancer cells = experiment: In vitro protein transfection (saporin delivery), cell viability by Alamar Blue assay; assay type: cell-based; conditions: MDA-MB-231 cells, under all four studied conditions
Protocol: Compositions 1-32 were tested for delivery of saporin into cells MDA-MB-231.
The two cells lines were purchased from ATCC (Manassas, Va.) and cultured in Dulbecco's Modified Eagle Medium (“DMEM”) supplemented with 10% Fetal Bovine Serum (“FBS”) and 1% penicillin/streptomycin at 37° C. in the presence of 5% CO2. For the protein transfection assay described below, cells were seeded in 96-well plates at a density of 10,000 cells per well a day prior to transfection.
To evaluate saporin delivery efficiency, lipid-like compound/saporin nanocomplexes prepared in Examples 19-54 were added to MDA-MB-231 cancer cells and incubated at 37° C. for 24 hours. The saporin concentration was 0.1 μg/250 μL in PBS. The same volume of PBS without any lipid-like compound or saporin was used as a control. The cell viability was determined by the Alamar Blue assay after 24 hours of incubation. All transfection studies were performed in quadruplicate.

4T1-12B breast tumors = experiment: In vivo cancer treatment, inhibition of tumor growth; conditions: BALB/c mice bearing 4T1-12B breast tumors, tail-vein injection every three days, 5.5 mg/kg lipid-like compound and 330 μg/kg saporin
Protocol: Composition 33 (i.e., 1-O16B/saporin) and Composition 34 (i.e., 1-O18B/saporin) were tested for in vivo inhibiting tumor growth following the procedure described below. More specifically, BALB/c mice bearing 4T1-12B breast tumors were developed from a 4T1-12B cell suspension in DMEM supplemented with 10% FBS at a concentration of 10^7 cells/ml. An aliquot (100 μl) of the cell suspension was injected into the mammary fat pad of 4-6 week-old female BALB/c mice. The mice were sorted into four groups randomly (n=7 for treatment group, n=5 for control groups) seven days after the injection. The mice were injected through tail-vein every three days. For the treatment group, each mouse was injected with 5.5 mg/kg of 1-O16B or 1-O18B and 330 μg/kg of saporin. Tumor volumes were measured every three days.
PBS without 1-O16B, 1-O18B, and saporin was also injected as a control. Comparative studies were also conducted using saporin in PBS without 1-O16B and 1-O18B.

Molecule | saporin delivery efficiency (MDA-MB-231 cancer cells) | tumor size (4T1-12B breast tumors; Day 16) | tumor size (4T1-12B breast tumors; Day 22)
CCCCCCCCCCSSCCOC(=O)CCN(C)CCCN(C)CCC(=O)OCCSSCCCCCCCCCC [Composition 80-O14B] | high saporin delivery efficiency |  | 
CCCCCCCCCCCCSSCCOC(=O)CCN(C)CCCN(C)CCC(=O)OCCSSCCCCCCCCCCCC [Composition 80-O16B] | high saporin delivery efficiency |  | 
CCCCCCCCCCCCCCCCOC(=O)CCN(C)CCCN(C)CCC(=O)OCCCCCCCCCCCCCCCC [Composition 80-O16] | high saporin delivery efficiency |  | 
CCCCCCCCCCCCCCSSCCOC(=O)CCN(C)CCCN(C)CCC(=O)OCCSSCCCCCCCCCCCCCC [Composition 80-O18B] | high saporin delivery efficiency |  | 
CCCCCCCCCCCCCCCCCCOC(=O)CCN(C)CCCN(C)CCC(=O)OCCCCCCCCCCCCCCCCCC [Composition 80-O18] | high saporin delivery efficiency |  | 
CCCCCCCCCCCCSSCCOC(=O)CCN(CCCN(CCO)CCO)CCC(=O)OCCSSCCCCCCCCCCCC [Composition 87-O16B] | high saporin delivery efficiency |  | 
saporin |  | more than 120 mm^3 | more than 250 mm^3
